Results published in patent publication US6011039A, “Aminopyridine derivatives” (Banyu Pharmaceutical Co., Ltd., priority 1996, dated 2000).

Columns and labels:
NPY Y1 receptor = molecular target: T1, NPY Y1 receptor (Homo sapiens, UniProt P25929); experiment: NPY Binding Inhibition Test ([125I] peptide YY binding to SK-N-MC cell membranes); settings: SK-N-MC membrane, 25° C., 2 hours, pH 7.4, 20,000 cpm [125I] peptide YY; read-out: IC50 (50% inhibition concentration against specific [125I] peptide YY binding)
T1 construct: A membrane sample prepared from SK-N-MC cells derived from human neuroblastoma; endogenous in cells; host or cells: SK-N-MC
T1 sequence (P25929 1-384): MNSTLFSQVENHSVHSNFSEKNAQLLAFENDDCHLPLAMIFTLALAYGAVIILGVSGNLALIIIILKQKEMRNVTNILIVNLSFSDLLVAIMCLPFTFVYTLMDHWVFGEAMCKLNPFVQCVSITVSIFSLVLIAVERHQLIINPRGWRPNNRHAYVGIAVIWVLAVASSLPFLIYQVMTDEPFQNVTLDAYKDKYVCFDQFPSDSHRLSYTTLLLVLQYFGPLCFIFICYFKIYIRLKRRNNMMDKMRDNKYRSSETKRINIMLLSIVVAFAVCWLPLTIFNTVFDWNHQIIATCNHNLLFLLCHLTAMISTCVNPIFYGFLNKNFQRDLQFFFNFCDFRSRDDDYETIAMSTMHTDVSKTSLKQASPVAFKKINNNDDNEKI
Method: Pharmacological Test Example 1
(NPY Binding Inhibition Test)
A membrane sample prepared from SK-N-MC cells derived from human neuroblastoma in which the expression of NPY Y1 receptor was reported, was incubated at 25° C. for 2 hours together with a test compound and 20,000 cpm of [^125 I] peptide YY (manufactured by Amersham Company) in an assay buffer (25 mM HEPES buffer solution containing 10 mM of magnesium chloride, 1 mM of phenylmethylsulfonyl fluoride, 0.1% of bacitracin and 0.5% of BSA, pH 7.4), and then subjected to filtration by a glass filter GF/C. After washing with a 50 mM Tris buffer solution containing 0.3% of BSA at pH 7.4, the radiation activity on the glass filter was measured by a gamma counter. The nonspecific binding was measured in the presence of 1 μM of peptide YY and the 50% inhibition concentration (IC50) of the test compound against specific [^125 I] peptide YY binding was obtained [Endocrinology, vol. 131, 2090 (1992)].

[1] = test system: NPY-induced feeding behavior; experiment: Antagonistic Test Against NPY-Induced Feeding Behavior In Vivo; design: species or system male SD rat; settings: 200 μg/head, into lateral ventricle, simultaneously with NPY (5 μg/head/10 μl); food intake for two hours; Duncan's test, p<0.05 significant
Method: Pharmacological Test Example 2
(Antagonistic Test Against NPY-Induced Feeding Behavior In Vivo)
Under pentobarbital anesthesia (intraperitoneal single administration of 200 mg/kg), a chronic guide cannula (outer diameter: 0.8 mm, inner diameter: 0.5 mm, length: 10 mm) was inserted stereotaxically in the right lateral cerebral ventricle of a male SD rat (7 to 8 weeks old, 200 to 300 g) and fixed by a dental resin. The forward end position of the guide cannula was at 0.9 mm posterior to bregma, 1.2 mm to the right of the midline and 1.5 mm ventral to the brain surface, so that when an inner needle was inserted, the forward end extended beyond the forward end of the guide cannula by about 2 mm and reached the lateral ventricle. After a recovery period of about one week, NPY (5 μg/head/10 μl) was administered into the lateral ventricle. The test compound was simultaneously administered as mixed with NPY, and food intake for two hours after the administration was measured. With respect to the obtained result, a multiple comparative determination was carried out by Duncan's test, whereby p<0.05 was taken as significant.

Compound: C=CCOC(=O)Nc1cccc(CNc2cc(N3CCOCC3)cc(CSc3nnc(CC)s3)n2)c1 [Example 4, 6-(5-ethyl-1,3,4-thiadiazol-2-ylthiomethyl)-4-morpholino-2-[3-(2-propenyloxycarbonylamino)benzylamino]pyridine]
- IC50 (NPY Y1 receptor): 0.33 nM
- increase in food intake induced by NPY [1]: significantly suppressed the increase in food intake induced by NPY
